Earlier results, collected in patent publication US6369065B1, “CD40 signal blocking agent” (UCB S.A., priority 2000, dated 2002).

System: aorta lesions
Settings: rabbit models of arteriosclerosis

Structure (SMILES): CCCCCN(CCO)c1cc(N2CCCCC2)nc2ncnn12 [AR12463]
- progress of aorta lesions: suppress the progress of aorta lesions
